Results from patent US8106059B2, “Substituted pyrazines that inhibit protease cathepsin S and HCV replication” (ViroBay, Inc., priority 2007, dated 2012).
pIC50: −log10 of the molar value. Read-outs that look alike come from different tables or passages of the source.

How the values were obtained:
[1] = biological target: recombinant human cathepsin S (Homo sapiens, UniProt P25774); experiment: Cathepsin S enzyme activity assay; type: biochemical; conditions: 10 uM Z-Leu-Arg-AMC, pH 4.5, 25° C.
Description: The cysteine protease inhibitor E-64 is assayed in parallel as a positive control.
Human recombinant cathepsin S is incubated with compounds or vehicle (final concentration=1% DMSO vehicle) in the presence of peptide substrate which is 10 uM Z-Leu-Arg-AMC. Compounds are preincubated with the enzyme for 15 minutes at 25° C. and the reaction started by the addition of substrate. Incubation with substrate proceeds for 30 minutes at 25° C. Incubation buffer is 20 mM CH3COONa, pH 4.5, 2.5 mM DTT, 0.05 M NaCl. Cathepsin S-mediated substrate cleavage is quantified using spectofluorimetric quantitation of AMC.

[2] = test system: HCV replicon-containing cells (Huh7/Clone A); experiment: HCV replicon assay; type: cell-based, Hepatitis C virus; conditions: at 25 μM, 48 hours
Source text: The HCV replicon assay is a cell-culture system that mimics in vivo HCV replication and provides a system to study HCV replication in vitro. It was created by transfecting cloned viral RNA derived from a consensus HCV genomic sequence into human Huh7 hepatoma cells that are semi-permissive for viral RNA production (Lohmann V., Korner F., Koch J.-O., Herian U., Theilmann L. and Bartenschlager R. (1999). Replication of subgenomic Hepatitis C virus RNAs in a hepatoma cell line. Science 285, 110-113 and Blight K. J., Kolykhalov A. A. and Rice C. M. (2000). Efficient initiation of HCV RNA Replication in cell culture. Science 290, […]). These transfected cell lines contain a subgenomic HCV RNA genome that includes (1) the HCV 5′NTR fused to 12 amino acids of the capsid coding region, (2) the neomycin phosphotransferase gene (Neo) as a selectable marker, (3) the internal ribosome entry site (IRES) from encephalomyocarditis virus (EMCV) that directs translation of HCV non-structural proteins (variously NS2 or NS3 to NS5B), and (4) the 3′ NTR. Replicon-containing cells autonomously and persistently replicate HCV RNA that can be measured quantitatively by real-time qPCR. Therefore, the replicon system facilitates quantitative assessment of anti-viral activity by monitoring changes in HCV RNA replication in a cell-based assay.
HCV replicon-containing cells (Huh7/Clone A) were routinely maintained in Clone A growth medium (DMEM medium [Invitrogen], supplemented with 10% Fetal Bovine Serum, 1% Non Essential Amino Acids and 1 g/L G418). Test compounds were dissolved in dimethylsulfoxide (DMSO) to make 200× stock solutions for all doses prior to treatment.
For the HCV replicon assay, Huh7/Clone A cells were trypsinized from culture flasks, seeded in 1 ml of Clone A growth medium without G418 at 4×10^4 cells per well in 24-well plates and incubated at 37° C. in a humidified CO2 (5%) incubator overnight. Following overnight incubation, compound solutions were added into wells in the same volume (5 μl of 200× compound stock per well) to give a final DMSO concentration of 0.5%. Three wells on each plate supplemented with 5 μl of DMSO served as untreated controls. […]
Total RNA eluted in 130 μl of RNase-free dH2O was quantitated by the RiboGreen Assay according to the supplier's protocol (Molecular Probe). […] RNA samples in the black microplate were mixed with 95 μl of diluted RiboGreen reagent (1:250 dilution in TE buffer) and sample fluorescence was measured using a fluorescence microplate reader at standard fluorescein wavelengths (excitation ˜480 nm, emission ˜520 nm). […]
TaqMan quantitative PCR (RT-qPCR) was used to quantitate the amount of HCV replicon RNA in each sample. […]

[3] = recombinant human cathepsin S, read-out: Cathepsin S IC50
[4] = Cathepsin S IC50, recombinant human cathepsin S

recombinant human cathepsin S, sequence (P25774 115-331): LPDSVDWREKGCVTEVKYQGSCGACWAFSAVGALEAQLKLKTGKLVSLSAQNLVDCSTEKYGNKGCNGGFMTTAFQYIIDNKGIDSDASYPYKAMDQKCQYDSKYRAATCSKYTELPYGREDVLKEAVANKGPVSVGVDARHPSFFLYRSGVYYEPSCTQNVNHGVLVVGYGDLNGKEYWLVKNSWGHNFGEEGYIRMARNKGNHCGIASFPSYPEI

Row | pIC50 [1, 3] | SMILES | pIC50 [1, 4] | inhibition of HCV replicon RNA [2]
1 | 8.74 | CCC[C@H](NC(=O)[C@@H]1[C@H]2CCC[C@H]2CN1C(=O)[C@@H](NC(=O)[C@@H](NC(c1cnccn1)C(F)(F)F)C1CCCCC1)C(C)(C)C)C(=O)C(=O)NC1CC1 (single isomer, unassigned) [Formula I isomer E] |  | 
2 |  | CCC[C@H](NC(=O)[C@@H]1[C@H]2CCC[C@H]2CN1C(=O)[C@@H](NC(C(NC(=O)c1cnccn1)C1CCCCC1)C(F)(F)F)C(C)(C)C)C(=O)C(=O)NC1CC1 (single isomer, unassigned) [Formula I isomer B] | 9.22 | 33%
3 | 8.85 | CCC[C@H](NC(=O)[C@@H]1[C@H]2CCC[C@H]2CN1C(=O)[C@@H](NC(=O)[C@@H](NC(c1cnccn1)C(F)(F)F)C1CCCCC1)C(C)(C)C)C(=O)C(=O)NC1CC1 (single isomer, unassigned) [Formula I isomer F] |  | 
4 |  | CCC[C@H](NC(=O)[C@@H]1[C@H]2CCC[C@H]2CN1C(=O)[C@@H](NC(C(NC(=O)c1cnccn1)C1CCCCC1)C(F)(F)F)C(C)(C)C)C(=O)C(=O)NC1CC1 (single isomer, unassigned) [Formula I isomer C] | 8.70 | 34%
5 |  | CCC[C@H](NC(=O)[C@@H]1[C@H]2CCC[C@H]2CN1C(=O)[C@@H](NC(C(NC(=O)c1cnccn1)C1CCCCC1)C(F)(F)F)C(C)(C)C)C(=O)C(=O)NC1CC1 (single isomer, unassigned) [Formula I isomer D] | 9.22 | 29%

Row | SMILES | pIC50 [1, 3] | pIC50 [1, 4] | inhibition of HCV replicon RNA [2]
6 | CCC[C@H](NC(=O)[C@@H]1[C@H]2CCC[C@H]2CN1C(=O)[C@@H](NC(C(NC(=O)c1cnccn1)C1CCCCC1)C(F)(F)F)C(C)(C)C)C(=O)C(=O)NC1CC1 (single isomer, unassigned) [Formula I isomer A] | 8.39 |  | 41%
